One compound from patent US20260062422A1 (Halda Therapeutics OpCo, Inc., priority 2022, published 2026) can be followed below.

The subject of one assay is LnCaP95 Parental cells. The assay can be described thus: Cellular growth inhibition assay for LnCaP95 Parental cells, CellTiter-Glo. Type of assay: cell-based. The note with it: CellTiterGlo assay, 6 days. How it is done:
(§1) T47D LnCap95 Parental and T47D LnCap95 AR-FL KO cells were seeded in 25 μL growth media in poly-d lysine coated black clear-bottom 384-well plates at 2500 cells/well with Phenol Red Free RPMI containing 10% charcoal stripped serum and 1% pen strep. Following seeding, plates were spun at 300×g for 30 seconds, then equilibrated to room temperature for 30 minutes, and moved into the incubator. 24 hours after seeding, compounds were titrated in 100% DMSO and diluted in growth medium. 25 μL of the compound/medium mixture was added to cells, bringing the total volume in each well to 50 μL. DMSO was used as a negative control.
After treatment, plates were spun at 300×g for 30 seconds, then cultured at 37° C. with 5% CO2 for 6 days in a humidified tissue culture incubator. On Day 6 of treatment, cell viability was quantified with CellTiter-Glo 2.0 reagent (Promega). Plates were equilibrated to room temperature for 30 minutes, then 25 μL of CellTiter-Glo 2.0 reagent was added to cells, bringing the total volume in each well to 75 μL. After reagent was added, plates were spun at 300×g for 30 seconds then mixed on a shaker for two minutes at 500 rpm and then incubated in dark at room temperature for 10 minutes. Following incubation, plates were spun at 300×g for 30 seconds, sealed with an optical adhesive cover, and luminescence readings were measured with an EnVision Plate Reader. […]
A general note: Cellular ATP, detected with luciferase, serves as a proxy for viable cell number.

Assay [1] concerns 22RV1 cells overexpressing FL-AR (22RV1 Parental(FL-AR^hi)). The experiment in a line: 22RV1 apoptosis assay (Caspase-Glo 3/7), cells overexpressing FL-AR. Type of assay: cell-based. The note with it: Caspase 3/7 Glo assay. How it is done: as §1, with “22RV1” for “T47D LnCap95”, “22RV1/AR” for “T47D LnCap95 AR-FL KO”, “5000” for “2500”, “PenStrep.” for “pen strep.”
After treatment, plates were spun at 300×g for 30 seconds, then cultured at 37° C. with 5% CO2 for 24 or 48 hours in a humidified tissue culture incubator. After 24 or 48 hours of treatment, Caspase 3/7 activity was quantified with Caspase-Glo 3/7 reagent (Promega). Plates were equilibrated to room temperature for 30 minutes, then 25 μL of Caspase-Glo 3/7 reagent was added to cells, bringing the total volume in each well to 75 μL. After reagent was added, plates were spun at 300×g for 30 seconds then mixed on a shaker for two minutes at 500 rpm and then incubated in the dark at room temperature for one hour. Following incubation, plates were spun at 300×g for 30 seconds, sealed with an optical adhesive cover, and luminescence reads were measured with an EnVision Plate Reader. […]

What is called GI50 is the concentration giving 50% growth inhibition. For orientation: EC50 means the concentration needed to bring the measured effect to its halfway point. As to `Cc1sc2c(c1C)C(c1ccc(OC3CC4(CCN(c5ncc(C(=O)N[C@H]6C(C)(C)[C@H](Oc7ccc(C#N)c(Cl)c7)C6(C)C)cn5)CC4)C3)cc1)=N[C@@H](Cc1ncco1)c1nnc(C)n1-2` [Compound I-49, N-[3-(3-chloro-4-cyano-phenoxy)-2,2,4,4-tetramethyl-cyclobutyl]-2-[2-[4-[(9S)-4,5,13-trimethyl-9-(oxazol-2-ylmethyl)-3-thia-1,8,11,12-tetrazatricyclo[8.3.0.02,6]trideca-2(6),4,7,10,12-pentaen-7-yl]phenoxy]-7-azaspiro[3.5]nonan-7-yl]pyrimidine-5-carboxamide], the “activity in parental LnCaP95 cells compared to AR knockout cells” value in the assay on LnCaP95 Parental cells (parental vs LnCaP95 AR-FL KO cells) is “enhanced activity in parental LnCaP95 cells”. The GI50 in the assay with LnCaP95 Parental cells (LNCaP-95, 144 h, parental LnCaP95 cells) stood at 37 nM. The “apoptosis in 22RV1 FL-AR^hi cells as compared to parental 22RV1 FL-AR^low cells” value in assay [1] is “highly apoptotic”. Also, the EC50 in assay [1] (Homo sapiens, 22RV1 cells overexpressing FL-AR (FL-AR^hi), 24 or 48 hours) is 126 nM.
